The values below come from PubChem BioAssay (NCI).

What all share (assay): NCI tumour cell line growth inhibition, 48 h
The subject of assay [1] is SK-OV-3 ovarian.
The subject of assay [2] is DMS 273 small cell lung.
Assay [3] concerns U251 CNS.
Assay [4] concerns CAKI-1 renal.
For assay [5], the system named is RPMI-8226 leukemia.
Assay [6] has as its system SF-268 CNS.
The test system of assay [7] is SK-MEL-28 melanoma.
In assay [8] the test system is M19-MEL melanoma.
Assay [9] deals with HCT-15 colon.
Assay [10] concerns DU-145 prostate.

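All cell lines were grown in 96-well plates and treated with compound for 48 hours. At the GI50, growth is halved. TGI denotes the concentration required for complete inhibition of growth.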

With `O=c1[nH]c(=O)n(C2OC(CO)C(O)C2O)cc1F` (stereo unspecified), the TGI is more than 97.4 µM in assay [1]; more than 100 µM in [2]; more than 48.7 µM in [3]; 18.1 µM in [4]; 44.8 µM in assay [5]; more than 100 µM in assay [6]. Also, the TGI is more than 100 µM in assay [7], more than 100 µM in [8], more than 72.5 µM in assay [9] and more than 100 µM in [10]. Besides, the GI50 in assay [3] was 0.0669 µM; in [4] it was 0.0104 µM; in assay [5], 0.0742 µM; in [6], 0.0491 µM; in [7] it was 0.0471 µM; in assay [9], 0.0207 µM.

For `O=C1c2ccccc2C(=O)c2sc(Nc3ccc([N+](=O)[O-])cc3)nc21`, the TGI was 36.8 µM in [1]; 14.6 µM in [2]; 8.71 µM in assay [3]; 12 µM in assay [4]; 9.1 µM in [5]; 12.2 µM in assay [6]. Besides, the TGI in assay [7] worked out at 25.7 µM; in assay [8], 3 µM; in assay [9], 18.9 µM; in [10], 33.5 µM.
